Experiments:
fos = assay: Northern blot analysis of fos mRNA expression in chondrocytes; format: cell-based, bovine
Experimental: The cytokine interleukin 1 (IL 1) has been used to identify the intermediate second messengers which regulate the expression of fos and jun.
In order to elucidate this possibility, the effect of DPI on fos and jun mRNA levels induced by IL 1 was investigated. RNA from chondrocytes treated with IL 1 in the presence and absence of DPI were analyzed by Northern blot analysis using either fos or collagenase cDNA probes.
Since superoxides are rapidly converted to hydrogen peroxide in the cell by superoxide dismutase, whether hydrogen peroxide could mimic the effect of IL 1 in the induction of fos expression was investigated. RNA was extracted from chondrocytes (Kandel et al. supra) treated with H2 O2 for 30, 60 and 90 minutes and examined by Northern blot analysis using a fos cDNA probe.
(§1) Bovine articular chondrocytes were isolated and plated as previously described (Kandel R. A. et al. Biochim. Biophys. Acta. 1053, 130-134, 1990). In order to determine the effect of orthovanadate on IL 1 and PMA (phorbol ester) induced responses, chondrocytes were incubated with orthovanadate (100 μM) for 2 hours before stimulation with IL 1 (10 ng/ml) or PMA ([…]). collagenase production was determined by incubating chondrocytes for 24 hours with IL 1 or PMA and the cell conditioned medium was assayed for collagenase activity using an ELISA procedure as described previously (Kandel et al. supra) PLA2 activity was measured by incorporating ^3 H-arachidonic acid (^3 H-AA) into the cells and then incubating the cells with medium containing 1 mg/ml BSA, either alone or in the presence of IL 1 or PMA, for 10 min. as previously described (Conquer, J. A. […], Biochim. Biophys. Acta. 1134, 1-6). The amount of ^3 H-AA liberated into the supernatant was determined. To measure PGE2 production, chondrocytes were incubated for 6 hours in Ham's F12 medium, either alone or with IL 1 or PMA. The supernatant was analyzed by RIA using an antibody specific for PGE2 (Dr. S. A. Jones, Mount Sinai Hospital, Toronto, Can.). In order to examine the expression of c-fos and c-jun, chondrocytes were incubated for 1 hour in the presence of IL-1, PMA or AA (3 μM). Chondrocytes were washed in PBS and the total RNA extracted as previously described (Cruz. et al, 1991, Biochem. J. 277, 327-330). RNA samples were run on formaldehyde agarose gels and transferred to nylon membrane for northern analysis using cDNA probes for c-fos and c-jun.
Cells were also incubated as described above with 20 mM N-acetylcyateine for 20 min. and then incubated with IL 1 for an additional 1 or 12 hours. The RNA was extracted and examined by Northern blot analysis using cDNA probes for c-fos and collagenase.

MDAY-D2 cells = assay: Viability of MDAY-D2 cells with different vanadyl compounds; format: cell-based, mouse; conditions: 0-50 μM, 48 hours; FIG. 8
Experimental: Three different forms of vanadyl compounds were examined for their effect on viability of cancer cell lines. MDAY-D2 cells were incubated in media containing 0-50 μM orthovanadate, vanadyl sulphate, or vanadyl hydroperoxide for 48 hours. The cells were harvested and the number of viable cells determined. […] Although there were slight differences in sensitivity, the overall cell death was similar.

MDAY-D2 [1] = assay: Liver metastases of MDAY-D2 cells in mice (histology), Example 8; format: in vivo
Excerpt: (§2) In order to examine the ability of vanadyl compounds to reduce tumor formation, growth and metastases, a specific animal model which allows investigation of all of these processes in the same animal was chosen. This model involves the injection of a metastatic haematopoietic cell line, MDAY-D2, into mice subcutaneously. These cells form a tumor at the site of injection and its size can be easily determined. In addition, these cells metastasize to the liver and metastases can be detected histologically after day 17 to 19. This model provides a very sensitive and reproducible approach to investigate the effect of vanadyl compounds on tumor growth and metastases.
Livers were removed from animals treated as described above and prepared for histological examination. FIG. 16 compares liver sections from untreated (C), orthovanadate (VO)(500 μg/day) and vanadyl sulphate (VS)(500 μg/day) treated animals. Nodules are identified with an arrow.

PLA2 = assay: 3H-arachidonic acid release by chondrocytes (PLA2 activity); format: cell-based, bovine; conditions: orthovanadate 100 uM
Experimental: as §1, with “Chondrocytes were washed in PBS and the total RNA extracted as previously described (Cruz. et al, 1991, Biochem. J. 277, 327-330). RNA samples were run on formaldehyde agarose gels and transferred to nylon membrane for northern analysis using cDNA probes for c-fos and c-jun.” left out

MDAY-D2 [2] = assay: MDAY-D2 tumor growth in mice, three vanadyl compounds, Example 6B; format: in vivo
Excerpt: as §2
In a separate experiment using the same animal model, the effect of orthovanadate, vanadyl sulphate and vanadyl hydroperoxide administration on tumor growth in vivo was examined. On Day 1, 20 mice were injected with 2×10^5 MDAY-D2 cell subcutaneously. The mice were divided into four groups of five mice. At day 5, the animals were injected subcutaneously with 50 μl of water alone or containing 10 mg/ml of orthovanadate, 10 mg/ml of vanadyl sulphate, or 10 mg/ml of vanadyl hydroperoxide. This treatment was continued daily for 16 days. At day 21, the mice were sacrificed and the tumors dissected and weighed.

MDAY-D2 [3] = assay: MDAY-D2 tumor growth in mice, combination therapy, Example 7; format: in vivo
Experimental: Twenty mice were injected subcutaneously with 2×10^5 cells on Day 1. At day 4, the mice were divided into four groups of five mice. Group one (control) received subcutaneous injections of 50 μl of water. Group two received daily intraperitoneal injections of 50 μl of 250 mM N-acetylcysteine. Group three received daily subcutaneous injections of 50 μl of 10 mg/ml of orthovanadate. Group four received daily intraperitoneal injections of 50 μl of […] N-acetylcysteine and 20 minutes later received 50 μl of subcutaneous injection of 50 μl of 10 mg/ml of orthovanadate. On day 10 the treatment was stopped. The animals were sacrificed on Day 13 and analyzed for tumor growth.

PGE2 = PGE2 production by chondrocytes (RIA); format: cell-based, bovine; conditions: orthovanadate 100 uM
Experimental: as §1, with “Chondrocytes were washed in PBS and the total RNA extracted as previously described (Cruz. et al, 1991, Biochem. J. 277, 327-330). RNA samples were run on formaldehyde agarose gels and transferred to nylon membrane for northern analysis using cDNA probes for c-fos and c-jun.” left out

collagenase = assay: Collagenase production by chondrocytes (ELISA of conditioned medium); format: cell-based, bovine; conditions: orthovanadate 100 uM, 2 hours before stimulation
Experimental: as §1, with “Chondrocytes were washed in PBS and the total RNA extracted as previously described (Cruz. et al, 1991, Biochem. J. 277, 327-330). RNA samples were run on formaldehyde agarose gels and transferred to nylon membrane for northern analysis using cDNA probes for c-fos and c-jun.” left out

MDAY-D2 and HTB14 cells = assay: Viability of proliferating tumor cell lines; format: cell-based, mouse (MDAY-D2); human (HTB14)
Experimental: Fos and jun activity are also required for cellular proliferation in many tumor cell lines. Accordingly, the effect of orthovanadate on adherent cells and cell suspensions were examined. MDAY-D2 (a mouse lymphoid cell line grown in suspension) and HTB14 cells (an adherent human primary astrocytoma cell line) were incubated in media containing 0-50 μM orthovanadate for 48 hours. The cells were harvested and the number of viable cells determined.

[O]=[V]([O-])([O-])[O-] [orthovanadate]
IL 1, PMA and AA induced c-fos expression (fos; orthovanadate 100 μM, FIGS. 4 and 18): completely inhibited
fos expression in response to factors such as IL 1 or arachidonic acid (fos; summary statement): completely inhibit
effectiveness in killing MDAY-D2 cells (MDAY-D2 cells): equally effective
levels of metastases in liver (MDAY-D2 [1]; 500 μg/day, FIG. 16): did not have detectable levels of metastases
effectiveness at preventing metastases (MDAY-D2 [1]; preliminary results, liver histology): effective at preventing metastases
IL 1 or PMA induced release of 3H-AA (PLA2): did not inhibit
effect on tumor growth, in words (MDAY-D2 [2]; 10 mg/ml s.c. daily): most efficacy in reducing tumor growth
mice without detectable tumors (MDAY-D2 [2]; 10 mg/ml s.c., day 21): one mouse did not have detectable tumors
animals that died (MDAY-D2 [2]; 10 mg/ml, 50 μl s.c. daily for 16 days, groups of five mice): One animal died
animals that died during the experiment (MDAY-D2 [3]; 10 mg/ml s.c. daily, group of five mice): One orthovanadate treated animal died
animals without detectable tumors (MDAY-D2 [3]; day 13, FIG. 14, orthovanadate: of four mice, combination: of five): two had no detectable tumors
production of PGE2 (IL 1 or PMA) (PGE2): did not inhibit
collagenase production (IL 1 or PMA) (collagenase): completely inhibited
time by which cell death was observed (MDAY-D2 and HTB14 cells): ≤ 24 h
cell death, concentration dependence (MDAY-D2 and HTB14 cells; 0-50 μM, 48 hours, FIG. 7): concentration dependent increase in cell death
cell death completeness (MDAY-D2 and HTB14 cells; within 3 days of continuous treatment): over 98%
